Results from PubChem BioAssay (NCI).
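Briefly, cells in 96-well plates were exposed to five compound concentrations for 48 h, and endpoints were estimated by linear interpolation. The concentration for full growth arrest is given as TGI.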

Key:
Test in all cases: DTP human tumour cell line panel, 48 h
HL-60(TB) leukemia = system: HL-60(TB) leukemia
EKVX NSCLC = system: EKVX NSCLC
NCI/ADR-RES ovarian = system: NCI/ADR-RES ovarian
MOLT-4 leukemia = system: MOLT-4 leukemia
OVCAR-4 ovarian = system: OVCAR-4 ovarian
RXF 393 renal = system: RXF 393 renal
SR leukemia = system: SR leukemia
MCF7 breast = system: MCF7 breast
HCT-116 colon = system: HCT-116 colon
UO-31 renal = system: UO-31 renal
UACC-62 melanoma = system: UACC-62 melanoma

SMILES | TGI (HL-60(TB) leukemia) [µM] | TGI (EKVX NSCLC) [µM] | TGI (NCI/ADR-RES ovarian) [µM] | TGI (MOLT-4 leukemia) [µM] | TGI (OVCAR-4 ovarian) [µM] | TGI (RXF 393 renal) [µM] | TGI (SR leukemia) [µM] | TGI (MCF7 breast) [µM] | TGI (HCT-116 colon) [µM] | TGI (UO-31 renal) [µM] | TGI (UACC-62 melanoma) [µM]
CCOC(=O)N(NC(=O)NC(C)C)c1ccccc1 | > 100 | > 100 | > 100 | > 100 | > 100 | > 100 | > 100 | > 100 | > 100 | > 100 | > 100
Oc1c2cc(Cl)cc1COCc1cc(Cl)cc(c1O)COCc1cc(Cl)cc(c1O)COC2 | 8.43 | > 100 | > 100 |  | > 100 | > 100 | > 100 | > 100 | > 100 | > 100 | > 100
CC(C)(C)OC(=O)CN1C(=O)CC1CC(=O)c1ccccc1 (configuration not stated) | 47.9 | 35.7 | > 100 | 25.3 | > 100 | 43.5 | 19.1 | 36.1 | 49.7 | 31.4 | 41.3
COc1ccc(C(=O)c2sc(N(C)C)nc2-c2ccccc2)cc1 | 40.9 |  | 49.8 | > 100 | > 100 | > 100 | > 100 | > 100 | > 100 | > 100 | > 100
Cc1cc2cc3c(cc2c(-c2ccc([N+](=O)[O-])cc2)n1)OCO3 | > 100 | > 100 | > 100 | > 100 | 56.8 | > 100 | > 100 | > 100 | > 100 | > 100 | 67.2
COc1ccccc1N(CN1C(=O)CCC1C(=O)O)C(C)=O (configuration not stated) | > 100 | > 100 | > 100 | > 100 | > 100 | > 100 | > 100 | > 100 | > 100 | > 100 | > 100
COc1cc2ncnc(Nc3cccc(Cl)c3)c2cc1OC | 62.4 | 15.7 | 20.3 | 54.2 | 75.8 | 26.8 | 24.1 | 72.2 | 46.2 | 44 | 22
COc1nc(N=P(c2ccccc2)(c2ccccc2)c2ccccc2)cc(=O)[nH]1 | > 100 | > 100 | > 100 | > 100 | > 100 | > 100 | > 100 | > 100 | > 100 | > 100 | > 100
CC(=O)N(C(C)=O)n1c(Cc2ccc(Cl)cc2)n[nH]c1=O | > 100 | > 100 | > 100 | > 100 | > 100 | > 100 | > 100 | > 100 | > 100 | > 100 | > 100
Cc1c(C)c(C)n(C2OC(CO)C(O)C(O)C2O)c(=S)c1C#N (configuration not stated) | > 100 | > 100 | > 100 | > 100 | > 100 | > 100 | > 100 | > 100 | > 100 | > 100 | > 100
CCCCCCCCCCCCN(CC(O)C(O)C(OC1OC(CO)C(O)C(O)C1O)C(O)CO)C(=O)CCCCCCCCCCC (configuration not stated) | > 100 | 34.4 | 49.7 | 50.1 | 44.5 | 67.5 | 57.8 | > 100 | 36.4 | 45.8 | 38.8
O=C(O)c1ccccc1/C=N/NC1=NCCN1 | > 100 | > 100 | > 100 | > 100 | > 100 | > 100 | > 100 | > 100 | > 100 | > 100 | > 100
O=C1CN(C(=O)C2CCCN2C(=O)C2CCCN2)C(=O)CN1 (configuration not stated) | > 100 | > 100 | > 100 | > 100 | > 100 | > 100 | > 100 | > 100 | > 100 | > 100 | > 100
N#CC1C(=O)N(c2ccccc2)NC12OC(=O)c1ccncc12 (configuration not stated) | > 20 | > 20 | > 20 | > 20 | > 20 | > 20 | > 20 | > 20 | > 20 | > 20 | > 20
O=c1[nH]nc(-c2ccccc2)n1/N=C/c1ccc([N+](=O)[O-])cc1 | > 100 | > 100 | > 68.9 | > 100 | > 100 | 28.1 | > 100 | > 100 | > 100 | > 38.1 | > 100
N#CC12CNCC1CN=N2 (configuration not stated) | > 100 | > 100 | > 100 | > 100 | > 100 | > 100 | > 100 | > 100 | > 100 | > 100 | > 100
CCOC(=O)c1cc2c([nH]1)c(O)cc1c2ccn1Cc1ccccc1 | 33.9 | 26.7 | 38.5 | 14.1 | 35.4 | 21.9 | 16.9 | 44.4 | 23.8 | 29.3 | 28.8
CCN(CC)CCn1nc(N)c2nc3ccccc3nc21 | > 100 | > 100 | > 100 | > 100 | > 100 | > 100 | > 100 | > 100 | > 100 | > 100 | > 100

SMILES | TGI (HL-60(TB) leukemia) [µM] | TGI (EKVX NSCLC) [µM] | TGI (NCI/ADR-RES ovarian) [µM] | TGI (MOLT-4 leukemia) [µM] | TGI (OVCAR-4 ovarian) [µM] | TGI (RXF 393 renal) [µM] | TGI (SR leukemia) [µM] | TGI (MCF7 breast) [µM] | TGI (HCT-116 colon) [µM] | TGI (UO-31 renal) [µM] | TGI (UACC-62 melanoma) [µM]
COC(=O)CC(c1cn(S(=O)(=O)c2ccc(C)cc2)c2ccccc12)C1C[C@@H](C(=O)OC)N(C(=O)OC(C)(C)C)C1=O (some centres not stated) | > 100 | > 100 | > 100 | 21 | > 100 | > 100 | 10.4 | > 100 | > 100 | > 100 | > 100
COc1cc(/C=C2/SC(c3ccccc3)N(c3ccccc3Cl)C2=O)cc(OC)c1OC (configuration not stated) | > 100 | > 100 | 85.3 | 68.2 | > 100 | 70.2 | 58.9 | > 100 | 67.7 | > 100 | > 100
COC(=O)C1=C(O)C(C(=O)OC)[C@]2(O)[C@H](C(=O)OC)[C@H]1C[C@@H](c1ccc(Cl)cc1)[C@H]2C(=O)OC (some centres not stated) | 12.9 | 30.6 | > 100 | > 100 | > 100 | 19.1 | > 100 | 24.1 | 17.3 | 21.4 | 24.9
Cc1cc(C)c2c(O)c(S(=O)(=O)c3ccc(Cl)cc3)c(=O)oc2c1 | > 100 | 93 | > 100 |  | > 100 | > 100 | > 100 | > 100 | > 100 | > 100 | > 100
CC1(C)C2CCC(CN)(C2)C1N (configuration not stated) | > 100 | > 100 | > 100 | > 100 | > 100 | > 100 | > 100 | > 100 | > 100 | > 100 | > 100
c1nc(N2CC2)c2cnn(C3CCCCO3)c2n1 (configuration not stated) | > 100 | > 100 | > 100 | > 100 | > 100 | > 100 | > 100 | > 100 | > 100 | > 100 | > 100
OC1(c2ccccc2)C2CCN(CC2)C1CN1CCOCC1 (configuration not stated) | > 100 | > 100 | > 100 | > 100 | > 100 | > 100 | > 100 | > 100 | > 100 | > 100 | > 100
c1ccc(-c2cn3c(nc4ccccc43)c(-c3ccccc3)n2)cc1 | > 100 | > 100 | > 100 | > 100 | > 26 | > 54.3 | > 100 | > 100 | > 100 | > 65.4 | > 55.6
COC1(C)CP(=O)(OC(C)C)CC(C)=C1Cl (configuration not stated) | 29.1 | 29.6 | > 100 | > 100 | 28.6 | 55.2 | > 100 | 18.6 | 21 | 34.2 | 25.6
O=[N+]([O-])c1ccc2c(c1)S(=O)(=O)N1Cc3ccccc3CCN21 | > 100 | > 100 | > 100 | > 100 | > 100 | > 100 | > 100 | > 100 | > 100 | > 100 | > 100
N#Cc1c(=O)n(-c2ccccc2)c(O)c2c(N)n[nH]c12 | > 100 | > 100 | > 100 | > 100 | > 100 | > 100 | > 100 | > 100 | > 100 | > 100 | > 100
Nc1cccnc1NCC1(CO)CCCC1 | > 100 | > 100 | > 100 | > 100 | > 100 | > 100 | > 100 | > 100 | > 100 | > 100 | > 100
OC1(c2ccc(Cl)cc2)C(N2CCCC2)c2ccccc2C2=NCCN21 (configuration not stated) | 50.7 | > 100 | 59.9 | 93.8 | 87.9 | 91.9 | 41.1 | 94.8 | 46.6 | > 100 | 41.3
COC(=O)C1=C(O)C(C(=O)OC)[C@]2(O)[C@H](C(=O)OC)[C@H]1C[C@@H](c1ccc(OC)c(OC)c1)[C@H]2C(=O)OC (some centres not stated) | 62.9 | > 100 | 54.5 | 69.8 | > 100 | 48.4 | 46.6 | > 100 | > 100 | > 100 | > 100
Ic1ccc2c(c1)N(c1ccccc1)c1cc(N=c3ccc4nc5ccc(I)cc5n(-c5ccccc5)c-4c3)ccc1N2 | 58.2 | > 100 | > 100 | > 100 | > 100 | > 100 | > 100 | > 100 | > 100 | > 100 | > 100
CCOC(=O)C1(Cc2ccccc2)C=CN(C(=O)c2ccccc2)C=C1 | 45.7 | > 100 | > 100 | 73.6 | > 100 | > 100 | 67.5 | > 100 | > 100 | > 100 | 72.9
O=C1c2[nH]c3ccc(Br)cc3c2CCN1Cc1ccc(Cl)cc1 | 99.1 | > 100 | 40.6 |  | 34.3 | 36.4 | 44.5 | 35.7 | 23.5 | 31.1 | 28.2
Cc1cc(S(=O)(=O)Nc2nc(N)n(-c3ccccn3)n2)c(S)cc1Cl | > 100 | > 100 | > 100 | > 100 | > 100 | > 100 | > 100 | > 100 | > 100 | > 100 | > 100
